{"source": "ChEMBL document CHEMBL4190297", "about": "“Cafestol, a Bioactive Substance in Coffee, Has Antidiabetic Properties in KKAy Mice” (J Nat Prod, 2017)", "key": {"Mus musculus [1]": {"species_on_record": "Mus musculus", "test": "Antidiabetic activity in KK-Ay diabetic mouse model assessed as mean fasting blood glucose level at 1.1 mg added daily to normal chow pellets for 10 weeks (reference value: 18 +/- 1.2 mmol/L)", "format": "functional"}, "Mus musculus [2]": {"species_on_record": "Mus musculus", "test": "Effect on GLUT2 mRNA expression levels in muscle of KK-Ay diabetic mouse model at 0.4 to 1.1 mg added daily to normal chow pellets for 10 weeks by qRT-PCR analysis", "format": "functional, organism-based"}, "Mus musculus [3]": {"species_on_record": "Mus musculus", "test": "Effect on LXRalpha mRNA expression levels in liver of KK-Ay diabetic mouse model at 0.4 to 1.1 mg added daily to normal chow pellets for 10 weeks by qRT-PCR analysis", "format": "functional, organism-based"}, "Mus musculus [4]": {"species_on_record": "Mus musculus", "test": "Effect on FABP4 mRNA expression levels in liver of KK-Ay diabetic mouse model at 0.4 to 1.1 mg added daily to normal chow pellets for 10 weeks by qRT-PCR analysis", "format": "functional, organism-based"}, "Mus musculus [5]": {"species_on_record": "Mus musculus", "test": "Effect on 18s rRNA expression levels in liver of KK-Ay diabetic mouse model at 0.4 to 1.1 mg added daily to normal chow pellets for 10 weeks by qRT-PCR analysis", "format": "functional, organism-based"}}, "note": "Activity calls are given as the source filed them. No cut-off for these calls is given here.", "data": [{"compound": "C[C@@]12CCc3occc3[C@H]1CC[C@@]13C[C@H](CC[C@H]12)[C@@](O)(CO)C3", "values": [{"measurement": "Activity", "setting": "Mus musculus [1]", "result": 12.9, "unit": "mmol/L"}, {"measurement": "Activity", "setting": "Mus musculus [2]", "result": "inactive"}, {"measurement": "Activity", "setting": "Mus musculus [3]", "result": "inactive"}, {"measurement": "Activity", "setting": "Mus musculus [4]", "result": "inactive"}, {"measurement": "Activity", "setting": "Mus musculus [5]", "result": "inactive"}]}]}
